# Paper PMC6514812, “[^18F]Fluoroethyltriazolyl Monocyclam Derivatives as Imaging Probes for the Chemokine Receptor CXCR4” (Molecules, 2019)
# Legend:
# CXCR4 [1] = biological target: T1, CXCR4 (Homo sapiens, UniProt P61073); assay: Competition binding assay vs [^68Ga]Pentixafor in PC3-CXCR4 cells
# T1 construct: expressed in transfected cells; host or cells: PC3 (human prostate cancer) cells stably transduced with CXCR4
# Protocol: (§1) PC3-CXCR4 cells were plated in 12-well plates at a density of 500,000 cells per well and incubated for 48 h at 37 °C/5% CO2. Prior to the binding assay the cells were incubated in fresh media and 370–555 kBq of [^68Ga]Pentixafor or [^18F]RPS-544 was added to each well. The corresponding concentration of [^68Ga]Pentixafor in each well was 100 nM, and the concentration of [^18F]RPS-544 was approximately 5 pM. Then non-radioactive ligands were added to give a final ligand concentration in the range 0.001–10,000 nM. A total of eight concentrations were studied, and each concentration was tested in triplicate. The cells were incubated for 60 min at 37 °C/5% CO2. The media was removed under suction, the cells were washed with cold PBS 1X and detached and transferred to tubes for counting in 1 M NaOH. The cells were counted in a Wizard^2 Gamma Counter (PerkinElmer, Waltham, MA, USA). Non-specific binding was subtracted, and the IC50 values were determined by assuming a simple competitive binding interaction and fitting the data to a sigmoidal Hill plot in Origin 9.0 (OriginLab, Northampton, MA, USA). Potencies are expressed as IC50 ± standard deviation (Supplemental Data, Figure S7).
# CXCR4 [2] = biological target: T1, CXCR4; assay: Saturation binding assay in PC3-CXCR4 cells
# Protocol: To determine the dissociation constants, saturation binding assays were performed in the PC3-CXCR4 cells. The cells were plated as described above, and approximately 5 nM of the radioligand was added to each well. Then the corresponding non-radioactive ligand was added to give a final concentration in the range 0.001–10,000 nM. A total of eight concentrations were tested, and each concentration was tested in triplicate. The samples were washed and counted as described above. Non-specific binding was subtracted, and Kd values were determined by performing a nonlinear one site binding curve fit with equation y = (Bmax · x)/(Kd + x). Values are expressed as Kd ± standard deviation (Supplemental Data, Figure S8).
# PC3-CXCR4 cells [3] = assay: Cell-associated activity in PC3-CXCR4 cells; assay type: cell-based, human; details: 1 h
# Protocol: Maximum cell-associated activity was calculated by subtracting the cell uptake of the radioactive ligand at the highest non-radioactive ligand concentration of 10 µM (which we considered to be non-specific uptake/binding) from the cell uptake at the lowest non-radioactive ligand concentration of 10^−5 µM.
# PC3-CXCR4 cells [4] = assay: Internalization in PC3-CXCR4 cells; assay type: cell-based, human; details: after 135 min incubation
# Protocol: Internalization studies were performed for [^18F]RPS-534 and [^18F]RPS-547 in a time dependent manner. PC3-CXCR4 cells were plated as described above in 12-well plates and incubated for 48 h prior to the experiment. The media was exchanged and [^18F]RPS-534 or [^18F]RPS-547 (10^−5 μM; approximately 400 kBq) was added to each well. All experiments were performed in triplicate. […] Then the media was removed under suction at the corresponding temperature, and the cells washed with 1 mL PBS. Cell surface-bound activity was collected by two successive 5 min incubations of 0.5 mL of a 50 mM glycine buffer (pH = 2.8) performed at 4 °C or 37 °C. The cells were then washed with 1 mL ice-cold PBS and detached with 1 mL ice cold 1 M NaOH. Detached cells were collected and counted along with the washes. An aliquot of the administered radioactivity (10% IA) was also counted and used for quantification. The activity found in the NaOH fractions of the 4 °C plates was subtracted from the activities of the fractions at 37 °C to correct for non-specific binding. Internalized activity was expressed as the fraction of activity in the NaOH fraction relative to the total activity added.
# [5] = Biodistribution in mice bearing bilateral PC3-WT/PC3-CXCR4 xenograft tumors; assay type: in vivo, BALB/c mice
# Protocol: (§2) All animal studies were approved by the Institutional Animal Care and Use Committee of Weill Cornell Medicine (Protocol Number: 2015-0066) and were undertaken in accordance with the guidelines set forth by the USPHS Policy on Humane Care and Use of Laboratory Animals. Animals were housed under standard conditions in approved facilities with 12 h light/dark cycles. Food and water was provided ad libitum throughout the course of the studies. Hairless 6-to-8-week old male BALB/c inbred athymic nude mice (Jackson Laboratory, Bar Harbor, ME, USA) were inoculated bilaterally with 0.2 mL of a 1:1 mixture of 10^7 PC3-CXCR4 cells in PBS and Matrigel (Corning, Tewksbury, MA, USA) subcutaneously in the left shoulder and 0.2 mL of a 1:1 mixture of 10^7 PC3-WT cells in PBS and Matrigel subcutaneously in the right shoulder. Imaging and biodistribution studies were performed three weeks post-implantation, when tumors were approximately 100–300 mm^3.
# (§3) For the biodistribution studies, tumor-bearing animals (n = 5/compound/time point) were injected intravenously with 50–100 μL of a 9% v/v EtOH/saline solution containing approximately 1.1 MBq of the radioligand. […] The mice were euthanized at 1 or 2 h p.i. and tissues including blood, heart, lungs, liver, small intestine, large intestine, stomach (with contents), spleen, pancreas, kidneys, muscle, bone, PC3-WT tumors, PC3-CXCR4 tumors, and tail were collected. All organs were weighed and placed in test tubes for counting in a Wizard^2 Gamma Counter (PerkinElmer, Waltham, MA, USA). For comparison, 1% injected activity standards were prepared and counted along with the tissue samples. The tails were counted to correct for any dose extravasation. Activity in each tissue was corrected for decay and for injected activity and expressed as percent injected dose per gram of tissue (%ID/g) ± standard error.
# [6] = test system: PC3-CXCR4 xenograft tumors; assay: as above; assay type: in vivo, BALB/c mice
# Protocol: as §2, §3
# CXCR4 [7] = biological target: T1, CXCR4; assay: Competition binding assay vs [^18F]RPS-544 in PC3-CXCR4 cells; details: approx. 5 pM [^18F]RPS-544; p = 0.85
# Protocol: as §1
# [8] = 1 h p.i., blocked by co-injection of 5 mg/kg AMD-3100
# T1 sequence (P61073 whole entry): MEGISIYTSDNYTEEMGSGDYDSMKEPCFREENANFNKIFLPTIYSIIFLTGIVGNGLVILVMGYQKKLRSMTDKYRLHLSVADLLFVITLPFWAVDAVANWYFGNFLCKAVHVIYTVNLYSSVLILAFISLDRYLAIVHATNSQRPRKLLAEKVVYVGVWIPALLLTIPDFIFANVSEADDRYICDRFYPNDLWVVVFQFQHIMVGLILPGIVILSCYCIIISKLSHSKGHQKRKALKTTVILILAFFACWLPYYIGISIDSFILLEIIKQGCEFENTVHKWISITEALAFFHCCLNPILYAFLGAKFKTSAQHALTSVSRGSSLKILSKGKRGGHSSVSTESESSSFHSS
smiles,measurement,setting,value
FCCn1cc(-c2cc(CN3CCCNCCNCCCNCC3)ccc2CNCc2ccccn2)nn1 [RPS-534],decrease in affinity relative to RPS-544,CXCR4 [1],30 fold
same,IC50,"CXCR4 [1]; vs 100 nM [^68Ga]Pentixafor, PC3-CXCR4 cells, 60 min 37 °C",218 ± 38 nM
same,"Hill Slope, Competitive Binding Experiment","CXCR4 [1]; vs [^68Ga]Pentixafor, value ± SD",1.15 ± 0.34
same,Kd,"CXCR4 [2]; saturation binding, PC3-CXCR4 cells",176 ± 30 nM
same,"Hill Slope, Saturation Binding Experiment",CXCR4 [2]; value ± SD,1.05 ± 0.15
same,Cell-Associated Activity,PC3-CXCR4 cells [3],18.5 ± 3.7 %IA
same,internalized activity,PC3-CXCR4 cells [4],approximately 2 %IA
same,internalized share of total cell-associated activity,PC3-CXCR4 cells [4],approximately 7%
same,Blood tissue activity,[5]; 1 h p.i.,0.30±0.08 %ID/g
same,Blood tissue activity,[5]; [8],0.26±0.15 %ID/g
same,Blood tissue activity,[5]; 2 h p.i.,0.08±0.02 %ID/g
same,Bone tissue activity,[6]; 1 h p.i.,1.44±0.04 %ID/g
same,Heart tissue activity,[6]; 1 h p.i.,0.25±0.01 %ID/g
same,Kidneys tissue activity,[6]; 1 h p.i.,7.43±0.96 %ID/g
same,Large Intestine tissue activity,[6]; 1 h p.i.,0.29±0.06 %ID/g
same,Liver tissue activity,[6]; 1 h p.i.,19.14 ± 0.42 %ID/g
same,Lungs tissue activity,[6]; 1 h p.i.,1.01±0.09 %ID/g
same,Muscle tissue activity,[6]; 1 h p.i.,0.19±0.03 %ID/g
same,PC3-CXCR4 Tumor Uptake,[6]; 1 h p.i.,7.20 ± 0.30 %ID/g
same,PC3-CXCR4 Tumor-to-Tissue Ratio Blood,[6]; 1 h p.i.,27.5 ± 0.4
same,PC3-CXCR4 Tumor-to-Tissue Ratio Bone,[6]; 1 h p.i.,5.7 ± 0.4
same,PC3-CXCR4 Tumor-to-Tissue Ratio Kidneys,[6]; 1 h p.i.,1.1 ± 0.4
same,PC3-CXCR4 Tumor-to-Tissue Ratio Liver,[6]; 1 h p.i.,0.4 ± 0.2
same,PC3-CXCR4 Tumor-to-Tissue Ratio Lungs,[6]; 1 h p.i.,8.0 ± 0.4
same,PC3-CXCR4 Tumor-to-Tissue Ratio Muscle,[6]; 1 h p.i.,42.4 ± 0.1
same,PC3-CXCR4 Tumor-to-Tissue Ratio PC3-WT,[6]; 1 h p.i.,2.5 ± 0.4
same,PC3-WT tumor activity,[6]; 1 h p.i.,2.85±0.22 %ID/g
same,Pancreas tissue activity,[6]; 1 h p.i.,0.28±0.02 %ID/g
same,Small Intestine tissue activity,[6]; 1 h p.i.,3.67±0.44 %ID/g
same,Spleen tissue activity,[6]; 1 h p.i.,2.49±0.04 %ID/g
same,Stomach tissue activity,[6]; 1 h p.i.,0.16±0.03 %ID/g
same,Bone tissue activity,[6]; [8],0.44±0.15 %ID/g
same,Heart tissue activity,[6]; [8],0.13±0.04 %ID/g
same,Kidneys tissue activity,[6]; [8],5.10±0.33 %ID/g
same,Large Intestine tissue activity,[6]; [8],0.40±0.58 %ID/g
same,Liver tissue activity,[6]; [8],12.01 ± 4.67 %ID/g
same,Lungs tissue activity,[6]; [8],0.48±0.08 %ID/g
same,Muscle tissue activity,[6]; [8],0.17±0.16 %ID/g
same,PC3-CXCR4 tumor activity,[6]; [8],2.01±0.93 %ID/g
same,PC3-WT tumor activity,[6]; [8],1.21±0.47 %ID/g
same,Pancreas tissue activity,[6]; [8],0.32±0.01 %ID/g
same,Small Intestine tissue activity,[6]; [8],5.35±1.74 %ID/g
same,Spleen tissue activity,[6]; [8],0.12±0.03 %ID/g
same,Stomach tissue activity,[6]; [8],0.14±0.11 %ID/g
same,Bone tissue activity,[6]; 2 h p.i.,1.26±0.06 %ID/g
same,Heart tissue activity,[6]; 2 h p.i.,0.14±0.02 %ID/g
same,Kidneys tissue activity,[6]; 2 h p.i.,5.05±0.80 %ID/g
same,Large Intestine tissue activity,[6]; 2 h p.i.,4.60±0.57 %ID/g
same,Liver tissue activity,[6]; 2 h p.i.,18.60±1.74 %ID/g
same,Lungs tissue activity,[6]; 2 h p.i.,0.59±0.03 %ID/g
same,Muscle tissue activity,[6]; 2 h p.i.,0.11±0.03 %ID/g
same,PC3-CXCR4 Tumor-to-Tissue Ratio Blood,[6]; 2 h p.i.,51.1 ± 0.2
same,PC3-CXCR4 Tumor-to-Tissue Ratio Bone,[6]; 2 h p.i.,3.5 ± 0.2
same,PC3-CXCR4 Tumor-to-Tissue Ratio Kidneys,[6]; 2 h p.i.,0.9 ± 0.2
same,PC3-CXCR4 Tumor-to-Tissue Ratio Liver,[6]; 2 h p.i.,0.2 ± 0.1
same,PC3-CXCR4 Tumor-to-Tissue Ratio Lungs,[6]; 2 h p.i.,7.1 ± 0.2
same,PC3-CXCR4 Tumor-to-Tissue Ratio Muscle,[6]; 2 h p.i.,38.8 ± 0.2
same,PC3-CXCR4 Tumor-to-Tissue Ratio PC3-WT,[6]; 2 h p.i.,2.5 ± 0.2
same,PC3-CXCR4 tumor activity,[6]; 2 h p.i.,4.31±0.47 %ID/g
same,PC3-WT tumor activity,[6]; 2 h p.i.,1.66±0.08 %ID/g
same,Pancreas tissue activity,[6]; 2 h p.i.,0.18±0.06 %ID/g
same,Small Intestine tissue activity,[6]; 2 h p.i.,1.53±0.25 %ID/g
same,Spleen tissue activity,[6]; 2 h p.i.,1.90±0.23 %ID/g
same,Stomach tissue activity,[6]; 2 h p.i.,0.12±0.05 %ID/g
same,reduction of tumor activity by blocking,[6]; blocking dose 5 mg/kg AMD-3100,approximately 70%
same,PC3-CXCR4 tumor uptake relative to [^18F]RPS-544,"[6]; mouse, in vivo",2 fold
same,tumor-to-heart ratio,"[6]; time not restated, follows the 1 h p.i. tumor-to-blood ratio",28.8 ± 0.3
same,IC50 vs [^18F]RPS-544 compared with IC50 vs [^68Ga]Pentixafor,CXCR4 [7],not significantly different
